Reference: BindingDB's records for patent US10188615 (ACUCELA INC., 2019)

Molecular target: T1, Retinoid isomerohydrolase (Human, UniProt Q16518)
T1 sequence (Q16518 whole entry): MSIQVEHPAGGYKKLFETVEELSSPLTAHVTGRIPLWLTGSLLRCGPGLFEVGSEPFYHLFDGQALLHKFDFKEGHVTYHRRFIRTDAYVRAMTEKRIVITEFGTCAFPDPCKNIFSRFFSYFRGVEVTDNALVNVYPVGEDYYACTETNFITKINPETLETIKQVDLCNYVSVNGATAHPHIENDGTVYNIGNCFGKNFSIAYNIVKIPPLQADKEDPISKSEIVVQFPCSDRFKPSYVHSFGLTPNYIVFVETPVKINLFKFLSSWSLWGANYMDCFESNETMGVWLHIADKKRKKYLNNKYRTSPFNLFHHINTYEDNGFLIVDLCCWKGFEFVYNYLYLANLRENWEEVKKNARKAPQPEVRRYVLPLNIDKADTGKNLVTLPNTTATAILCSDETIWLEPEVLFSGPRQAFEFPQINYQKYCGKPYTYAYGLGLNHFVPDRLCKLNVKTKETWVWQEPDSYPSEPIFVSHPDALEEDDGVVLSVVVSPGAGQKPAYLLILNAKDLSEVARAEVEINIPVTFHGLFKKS
Assay: In Vitro Isomerase Inhibition Assay

SMILES	IC50
CN(C)C(=O)CCCOc1cccc(OCCN)c1 [US10188615, Example 138]	in the range around 5500 nM
CCC(O)(CC)COc1cccc(CCCN)c1 [US10188615, Example 32]	in the range around 55 nM
CC(C)CCOc1cccc(OCCN)c1 [US10188615, Example 46]	in the range around 55 nM
NCCCc1cccc(OCc2c(Cl)cccc2Cl)c1 [US10188615, Example 91]	in the range around 550 nM
NCCOc1cccc(OCCCCCOCc2ccccc2)c1 [US10188615, Example 134]	in the range around 5500 nM
NCCOc1cccc(OCc2ccccc2)c1 [US10188615, Example 8]	in the range around 550 nM
NCC(O)c1cccc(OCC2CCCCC2)c1 (stereo not given) [US10188615, Example 127]	in the range around 550 nM
C[C@H](CN)[C@H](O)c1cccc(OCC2CCCCC2)c1 [US10188615, Example 76]	in the range around 5500 nM
COCCCCOc1cccc(CCCN)c1 [US10188615, Example 41]	in the range around 550 nM
CC(CCN)c1cccc(OCC2CCCCC2)c1 (stereo not given) [US10188615, Example 81]	in the range around 55 nM
NCCOc1cccc(OCC2CCC2)c1 [US10188615, Example 58]	in the range around 550 nM
CCCC(CCC)COc1cccc(O[C@@H](C)CN)c1 [US10188615, Example 63]	in the range around 550 nM
NCCOc1cccc(OCC2CCCC2)c1 [US10188615, Example 104]	in the range around 55 nM
C[C@H](CN)Oc1cccc(OCC2CCCC2)c1 [US10188615, Example 52]	in the range around 550 nM
NCCCc1cccc(OCCCCCOCc2ccccc2)c1 [US10188615, Example 136]	in the range around 5500 nM
CC[C@H](CN)[C@@H](O)c1cccc(OCC2CCCCC2)c1 [US10188615, Example 49]	in the range around 55 nM
NCCCc1cccc(OCC2CCC2)c1 [US10188615, Example 61]	in the range around 550 nM
COCCOCCOCC(=O)NCCC(O)c1cccc(OCC2CCCCC2)c1 (stereo not given) [US10188615, Example 77]	in the range around 5500 nM
NCCC(O)c1cccc(OCCCCCOCc2ccccc2)c1 (stereo not given) [US10188615, Example 115]	in the range around 55 nM
NCCOc1cccc(OCC2CC2)c1 [US10188615, Example 57]	in the range around 550 nM
COc1ccccc1COc1cccc(C(O)CCN)c1 (stereo not given) [US10188615, Example 92]	in the range around 55 nM
N=C(N)CC(O)c1cccc(OCC2CCCCC2)c1 (stereo not given) [US10188615, Example 130]	in the range around 55 nM
CNC(=O)CCCOc1cccc(OCCN)c1 [US10188615, Example 133]	in the range around 5500 nM
COc1ccccc1COc1cccc(CCCN)c1 [US10188615, Example 38]	in the range around 550 nM

SMILES	IC50
NCCC(O)(CO)c1cccc(OCC2CCCCC2)c1 (stereo not given) [US10188615, Example 79]	in the range around 5500 nM
NCCC(O)c1cccc(OCCCCOCc2ccccc2)c1 (stereo not given) [US10188615, Example 114]	in the range around 55 nM
CCCCCOc1cccc(CCCN)c1 [US10188615, Example 44]	in the range around 550 nM
NCCOc1cccc(OCCCc2ccccc2)c1 [US10188615, Example 89]	in the range around 550 nM
NCCCc1cccc(OCCc2ccccc2)c1 [US10188615, Example 70]	in the range around 550 nM
NCCOc1cccc(OCCCO)c1 [US10188615, Example 95]	in the range around 5500 nM
NCCCc1cccc(OCCOCc2ccccc2)c1 [US10188615, Example 102]	in the range around 550 nM
CCCC(CCC)COc1cccc(C[C@@H](O)CN)c1 [US10188615, Example 68]	in the range around 55 nM
CCC(CC)COc1cccc(O[C@H](C)CN)c1 [US10188615, Example 50]	in the range around 550 nM
CCC(CC)COc1cccc(OCCN)c1 [US10188615, Example 36]	in the range around 55 nM
CCC(CC)COc1cccc(C[C@H](O)CN)c1 [US10188615, Example 66]	in the range around 55 nM
NCCCc1cccc(OCCCc2ccccc2)c1 [US10188615, Example 96]	in the range around 550 nM
COCCCOc1cccc(OCCN)c1 [US10188615, Example 85]	in the range around 550 nM
NCCCc1cccc(OCC2CC2)c1 [US10188615, Example 60]	in the range around 550 nM
CCCC(CCC)COc1cccc(O[C@H](C)CN)c1 [US10188615, Example 51]	in the range around 550 nM
COc1ccccc1COc1cccc(OCCN)c1 [US10188615, Example 101]	in the range around 550 nM
COCCOc1cccc(OCCN)c1 [US10188615, Example 113]	in the range around 5500 nM
NCCOc1cccc(OCc2c(Cl)cccc2Cl)c1 [US10188615, Example 84]	in the range around 550 nM
NCCCc1cccc(OCC2(O)CCCCCCC2)c1 [US10188615, Example 135]	in the range around 550 nM
NCCOc1cccc(OCC2(O)CCCCC2)c1 [US10188615, Example 26]	in the range around 550 nM
CCC(CC)COc1cccc(O[C@@H](C)CN)c1 [US10188615, Example 62]	in the range around 550 nM
NCCSc1cccc(OCC2CCCCC2)c1 [US10188615, Example 123]	in the range around 55 nM
NCCOc1cccc(OCC2CCCCCCC2)c1 [US10188615, Example 93]	in the range around 55 nM
COCCOc1cccc(CCCN)c1 [US10188615, Example 40]	in the range around 5500 nM

Second part, the compound after the results:

IC50	SMILES
in the range around 5500 nM	NCCOc1cccc(OCCCC(N)=O)c1 [US10188615, Example 144]
in the range around 550 nM	CCCC(O)COc1cccc(CCCN)c1 (stereo not given) [US10188615, Example 167]
in the range around 55 nM	CC(C)C(O)COc1cccc(C(O)CCN)c1 (stereo not given) [US10188615, Example 158]
in the range around 550 nM	NCCOc1cccc(OCCCCCO)c1 [US10188615, Example 143]
in the range around 55 nM	CC(=O)O[C@@H]1CCCC[C@@H]1COc1cccc([C@H](O)CCN)c1 [US10188615, Example 174]
in the range around 55 nM	Cc1cc(OCCN)cc(OCC2CCCCC2)c1 [US10188615, Example 154]
in the range around 5500 nM	NCCCCc1cccc(OCC2CCCCC2)c1 [US10188615, Example 184]
in the range around 55 nM	NCCCc1cccc(OC[C@H]2CCCC[C@H]2O)c1 (relative stereo) [US10188615, Example 147]
in the range around 5500 nM	NCCC(O)c1cc(OCC2CCCCC2)ccc1Br (stereo not given) [US10188615, Example 146]
in the range around 550 nM	CN(C)C(=O)CCCOc1cccc(C(O)CCN)c1 (stereo not given) [US10188615, Example 157]
in the range around 550 nM	Cc1c(OCCN)cccc1OCC1CCCCC1 [US10188615, Example 164]
in the range around 550 nM	CC(C)C(O)COc1cccc(CCCN)c1 (stereo not given) [US10188615, Example 152]
in the range around 5500 nM	NCCCc1cc(CO)cc(OCC2CCCCC2)c1 [US10188615, Example 142]
in the range around 5500 nM	N=C(N)NCc1cccc(OCC2CCCCC2)c1 [US10188615, Example 190]
in the range around 550 nM	CNCCC(=O)c1cccc(OCC2CCCCC2)c1 [US10188615, Example 181]
in the range around 55 nM	NCC[C@@H](O)c1cc(O)cc(OCC2CCCCC2)c1 [US10188615, Example 179]
in the range around 550 nM	Cc1cccc(C)c1COc1cccc(OCCN)c1 [US10188615, Example 140]
in the range around 5500 nM	NCCOc1cccc(OCC(O)c2ccccc2)c1 (stereo not given) [US10188615, Example 145]
in the range around 550 nM	NCCCc1cccc(OCC2CCCCO2)c1 (stereo not given) [US10188615, Example 162]
in the range around 55 nM	NCCC(O)c1cccc(OCCCCCO)c1 (stereo not given) [US10188615, Example 166]
in the range around 550 nM	NCCCc1cccc(OCC(O)c2ccccc2)c1 (stereo not given) [US10188615, Example 150]
in the range around 5500 nM	NCCC(O)c1cccc(OCCCC(N)=O)c1 (stereo not given) [US10188615, Example 149]
in the range around 5500 nM	NCCC#Cc1cccc(OCC2CCCCC2)c1 [US10188615, Example 196]
in the range around 550 nM	NCCOc1cccc(OCCCCO)c1 [US10188615, Example 156]
in the range around 550 nM	NCCC(O)c1cccc(OCCCCO)c1 (stereo not given) [US10188615, Example 165]
in the range around 550 nM	NC/C=C/c1cc(F)cc(OCC2CCCCC2)c1 [US10188615, Example 198]
in the range around 550 nM	NCCCc1cccc(OCCCCCO)c1 [US10188615, Example 151]
